Source: article PMC11477134 (International Journal of Molecular Sciences, 2024)
Where two headings read alike, the source gives them in different places.

Key:
hGSK-3β = target: T1, hGSK-3β (Homo sapiens, UniProt P49841); assay: hGSK-3β activity (ADP-Glo/Kinase-Glo assay) and enzyme kinetics; type: biochemical
T1 construct: purchased Promega (Madison, WI, USA)
Experimental: Inhibition of hGSK-3β activity was evaluated using the Kinase-Glo assay. To initiate the reaction, test compound and hGSK-3β (20 ng) were added to each well of a 384-well black plate, followed by the addition of 20 μL of assay buffer containing GSM (hGSK-3β substrate peptide, 25 μM) and ATP (final concentration, 1 μM). […] The reaction mixture was then incubated at 37 °C for 30 min, followed by the addition of the ADP-GloTM reagent (20 μL) to terminate the enzymatic reaction and deplete the remaining ATP. The kinase detection reagent was added to the well plate and glow-type luminescence was recorded using a Synergy H1 microplate reader.
(§1) Dixon plots were obtained in the presence of different concentrations of substrates for AD-related target enzymes. Michaelis–Menten and Lineweaver–Burk plots were constructed in the absence or presence of various concentrations of honokiol. The Enzyme Kinetic™ module of SigmaPlot™ version 12.3 (Systat Software, Inc., San Jose, CA, USA) was used to calculate kinetic parameters, such as the Ki, Vmax, and Km.

hBACE1 = target: T2, hBACE1 (Homo sapiens, UniProt P56817); assay: hBACE1 inhibitory activity (FRET assay) and enzyme kinetics; type: biochemical
T2 construct: purchased Invitrogen (Pan Vera, Madison, WI, USA)
Experimental: The FRET-based assay was used to evaluate the anti-hBACE1 activity and was performed according to the manufacturer’s instructions. […] The percentage BACE1 inhibitory activity was calculated using the following formula:Inhibition (%) = [1 − (S − S0)/(C − C0)] × 100(1) where C is the control fluorescence without the sample after 60 min of incubation, C0 is the control fluorescence at time 0, S is the test sample fluorescence after 60 min of incubation, and S0 is the test sample fluorescence at time 0.
(§2) Dixon plots were obtained in the presence of different concentrations of substrates for AD-related target enzymes. Michaelis–Menten and Lineweaver–Burk plots were constructed in the absence or presence of various concentrations of honokiol.

hQC = target: T3, hQC (Homo sapiens, UniProt Q16769); assay: hQC inhibitory activity (fluorometric assay) and enzyme kinetics; type: biochemical
T3 construct: purchased R&D Systems (Minneapolis, MN, USA)
Experimental: The inhibitory activity of hQC was evaluated using H-Gln-AMC hydrobromide (400 μM) as the substrate in a fluorometric assay. The buffer consisted of 25 mM HEPES (pH 7.0; adjusted with HCl). The hQC (10 μg/mL) and its auxiliary enzyme pGAPase (50 units) were pre-diluted 1:250 in HEPES. A typical reaction mixture consisted of the substrate, test compounds, and pGAPase. After incubation in black 96-well plates for 10 min at 37 °C, the reaction was initiated by adding hQC solution. The fluorescence intensity of the samples was measured at excitation/emission wavelengths of 380/460 nm, which correlated with the amount of AMC, the end product of the enzymatic process.
as §1

Aβ1-42 = Aβ1-42 (Homo sapiens, UniProt P05067); assay: Anti-Aβ1-42 aggregation (preliminary study); type: biochemical; details: compared with honokiol
AChE = AChE (Homo sapiens, UniProt P22303); details: Dixon and Lineweaver–Burk plots
Experimental: The AChE inhibitory activity was measured spectrophotometrically using the modified Ellman method. First, AChE (0.8 U/mL) was added to a mixture containing sodium phosphate buffer (0.1 M; pH 8.0), DTNB (5 mM), and a test sample, followed by incubation at 37 °C for 15 min in 96-well microplates. Next, ACTI (500 µM; substrate for AChE) was added to the mixture to activate the reaction.
as §2

[1] = design: method as in PMID 29925102; details: use of honokiol or herbal formulations containing it; cited from earlier work
[2] = mean ± S.D. of triplicate experiments, read-out: IC50 hGSK-3β
[3] = mean ± S.D. of triplicate experiments, read-out: IC50 hQC
[4] = Dixon and Lineweaver–Burk plots

T2 sequence (P56817 46-501): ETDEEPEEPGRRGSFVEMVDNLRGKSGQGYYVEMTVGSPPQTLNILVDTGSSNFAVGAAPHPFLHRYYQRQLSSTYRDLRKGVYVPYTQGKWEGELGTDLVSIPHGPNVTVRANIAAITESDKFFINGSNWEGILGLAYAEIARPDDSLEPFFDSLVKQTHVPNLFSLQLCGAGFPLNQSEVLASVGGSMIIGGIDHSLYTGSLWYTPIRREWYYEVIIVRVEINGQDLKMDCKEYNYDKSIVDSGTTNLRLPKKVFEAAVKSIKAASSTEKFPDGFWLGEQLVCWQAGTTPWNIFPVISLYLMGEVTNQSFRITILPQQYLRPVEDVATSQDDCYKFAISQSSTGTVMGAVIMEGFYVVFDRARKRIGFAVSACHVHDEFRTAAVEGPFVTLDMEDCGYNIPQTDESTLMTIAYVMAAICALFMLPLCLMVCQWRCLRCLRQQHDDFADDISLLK
T1 sequence (P49841 whole entry): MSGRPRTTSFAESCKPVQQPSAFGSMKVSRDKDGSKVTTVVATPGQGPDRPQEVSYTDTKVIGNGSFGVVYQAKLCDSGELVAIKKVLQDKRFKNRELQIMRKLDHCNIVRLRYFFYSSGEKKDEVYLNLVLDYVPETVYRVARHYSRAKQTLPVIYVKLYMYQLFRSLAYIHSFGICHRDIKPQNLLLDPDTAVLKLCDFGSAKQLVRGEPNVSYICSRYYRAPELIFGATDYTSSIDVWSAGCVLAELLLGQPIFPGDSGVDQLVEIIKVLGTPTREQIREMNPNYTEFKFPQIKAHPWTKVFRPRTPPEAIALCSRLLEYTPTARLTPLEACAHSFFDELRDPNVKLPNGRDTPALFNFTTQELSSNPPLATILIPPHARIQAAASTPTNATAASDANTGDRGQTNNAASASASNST
T3 sequence (Q16769 29-361): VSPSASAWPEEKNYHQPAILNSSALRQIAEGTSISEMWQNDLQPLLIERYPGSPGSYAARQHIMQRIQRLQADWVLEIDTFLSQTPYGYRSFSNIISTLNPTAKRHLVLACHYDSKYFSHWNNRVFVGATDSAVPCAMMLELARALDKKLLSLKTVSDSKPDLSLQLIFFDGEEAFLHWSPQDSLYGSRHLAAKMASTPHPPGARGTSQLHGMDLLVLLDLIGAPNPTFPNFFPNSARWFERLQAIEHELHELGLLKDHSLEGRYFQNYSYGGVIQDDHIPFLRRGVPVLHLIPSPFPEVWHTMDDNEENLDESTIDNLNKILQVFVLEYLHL
Chain of Aβ1-42 (P05067 672-713 limits assumed): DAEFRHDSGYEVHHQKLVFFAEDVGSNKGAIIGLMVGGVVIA
Chain of AChE (P22303 32-614): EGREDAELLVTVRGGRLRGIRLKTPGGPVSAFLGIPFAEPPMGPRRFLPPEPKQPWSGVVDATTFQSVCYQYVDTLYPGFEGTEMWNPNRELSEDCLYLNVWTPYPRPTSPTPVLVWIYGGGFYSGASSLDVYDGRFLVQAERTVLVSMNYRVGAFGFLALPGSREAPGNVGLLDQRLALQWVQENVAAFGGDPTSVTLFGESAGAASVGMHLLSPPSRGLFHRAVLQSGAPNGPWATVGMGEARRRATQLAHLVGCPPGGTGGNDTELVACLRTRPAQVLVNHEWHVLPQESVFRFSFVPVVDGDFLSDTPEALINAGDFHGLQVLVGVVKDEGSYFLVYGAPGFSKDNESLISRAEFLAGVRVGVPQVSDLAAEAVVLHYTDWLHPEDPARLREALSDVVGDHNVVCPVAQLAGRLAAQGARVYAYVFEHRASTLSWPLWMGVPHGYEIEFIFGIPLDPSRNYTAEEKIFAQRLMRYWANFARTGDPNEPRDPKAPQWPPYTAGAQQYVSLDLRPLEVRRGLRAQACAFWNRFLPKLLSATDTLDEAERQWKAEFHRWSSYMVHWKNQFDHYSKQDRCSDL

Which IC50 (hGSK-3β; [2]) does the source give for `C[C@@H]1O[C@@H](OC[C@H]2O[C@@H](Oc3c(-c4ccc(O)c(O)c4)oc4cc(O)cc(O)c4c3=O)[C@H](O)[C@@H](O)[C@@H]2O)[C@H](O)[C@H](O)[C@H]1O` [rutin, reference compound] here?
Its IC50 is 10.8 µM.

With `C=CCc1ccc(O)c(-c2cc(CC=C)ccc2O)c1` [Magnolol (51), 5,5′-diallyl-2,2′-dihydroxybiphenyl] as the molecule, how does the IC50 (hBACE1; mean ± S.D. of triplicate experiments, read-out: IC50 hBACE1) read?
The IC50 was over 100 µM.

And the IC50 (hQC; [3])?
Its IC50 is over 100 µM.

And the IC50 (hGSK-3β; [2])?
Its IC50 is over 100 µM.

And the anti-Aβ1-42 aggregation effects (Aβ1-42)?
Its anti-Aβ1-42 aggregation effects is “lower anti-Aβ1-42 aggregation effects than that of honokiol”.

Which IC50 (hQC; [3]) does the source give for `Oc1ccc(/C=C/c2cc(O)cc(O)c2)cc1` [resveratrol, reference compound] here?
Its IC50 is 30.9 µM.

Which results are given for `C=CCc1ccc(O)c(-c2ccc(O)c(CC=C)c2)c1` [Honokiol (39), 3,5′-diallyl-4,2′-dihydroxybiphenyl]?
IC50 (hBACE1): 20.6 ± 0.8 µM; Ki (hBACE1): 27.3 µM; Inhibition Mode hBACE1 (hBACE1; [4]): Non-competitive; Inhibition Mode AChE (AChE): Non-competitive; IC50 (hQC): 90.7 ± 1.07 µM; Ki (hQC): 49.4 µM; Inhibition Mode hQC (hQC; [4]): Competitive; IC50 (hGSK-3β): 6.7 ± 0.03 µM; Ki (hGSK-3β): 9.8 µM; Inhibition Mode hGSK-3β (hGSK-3β; [4]): Non-competitive; side effects in humans [1]: no side effects have been reported in humans
